Source: the supplement of paper PMC10307832

Columns and labels:
Experiment in all cases: relative viability (nuclei count vs DMSO), 5 days (fraction); higher = more cells survive
IMD-0354 + Trametinib = compound: O=C(Nc1cc(C(F)(F)F)cc(C(F)(F)F)c1)c1cc(Cl)ccc1O [IMD-0354] + CC(=O)Nc1cccc(-n2c(=O)n(C3CC3)c(=O)c3c(Nc4ccc(I)cc4F)n(C)c(=O)c(C)c32)c1 [Trametinib] (partner 0.02 µM)
How it was run: (§1)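 Medians of duplicate plates are given as relative viability. That measure is the nuclei count in treated wells divided by the count in vehicle wells. Counts were taken on 4× images of lung cancer cell lines in 1536-well plates, 5 days after pin-tool dosing the day after seeding with one drug alone or a fixed anchor-drug dose plus five library-drug doses (not always all listed) in √10 steps.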

IMD-0354 + Navitoclax = compound: O=C(Nc1cc(C(F)(F)F)cc(C(F)(F)F)c1)c1cc(Cl)ccc1O [IMD-0354] + CC1(C)CCC(c2ccc(Cl)cc2)=C(CN2CCN(c3ccc(C(=O)NS(=O)(=O)c4ccc(N[C@H](CCN5CCOCC5)CSc5ccccc5)c(S(=O)(=O)C(F)(F)F)c4)cc3)CC2)C1 [Navitoclax] (partner 0.5 µM)
How it was run: as §1

CX-5461 + Foretinib = compound: Cc1cnc(CNC(=O)c2c(=O)c3ccc(N4CCCN(C)CC4)nc3n3c2sc2ccccc23)cn1 [CX-5461] + COc1cc2c(Oc3ccc(NC(=O)C4(C(=O)Nc5ccc(F)cc5)CC4)cc3F)ccnc2cc1OCCCN1CCOCC1 [Foretinib] (partner 0.25 µM)
How it was run: as §1

CX-5461 + Vorinostat = compound: Cc1cnc(CNC(=O)c2c(=O)c3ccc(N4CCCN(C)CC4)nc3n3c2sc2ccccc23)cn1 [CX-5461] + O=C(CCCCCCC(=O)Nc1ccccc1)NO [Vorinostat] (partner 1 µM)
How it was run: as §1

Cell Line | relative viability (IMD-0354 + Trametinib; first compound 0.04 µM) | relative viability (IMD-0354 + Trametinib; first compound 0.1265 µM) | relative viability (IMD-0354 + Trametinib; first compound 0.4 µM) | relative viability (IMD-0354 + Trametinib; first compound 1.265 µM) | relative viability (IMD-0354 + Trametinib; first compound 4 µM) | relative viability (IMD-0354 + Navitoclax; first compound 0.04 µM) | relative viability (IMD-0354 + Navitoclax; first compound 0.1265 µM) | relative viability (IMD-0354 + Navitoclax; first compound 0.4 µM) | relative viability (IMD-0354 + Navitoclax; first compound 1.265 µM) | relative viability (IMD-0354 + Navitoclax; first compound 4 µM) | relative viability (CX-5461 + Foretinib; first compound 0.01 µM) | relative viability (CX-5461 + Foretinib; first compound 0.03162 µM) | relative viability (CX-5461 + Foretinib; first compound 0.1 µM) | relative viability (CX-5461 + Foretinib; first compound 0.3162 µM) | relative viability (CX-5461 + Foretinib; first compound 1 µM) | relative viability (CX-5461 + Vorinostat; first compound 0.01 µM) | relative viability (CX-5461 + Vorinostat; first compound 0.03162 µM) | relative viability (CX-5461 + Vorinostat; first compound 0.1 µM) | relative viability (CX-5461 + Vorinostat; first compound 0.3162 µM) | relative viability (CX-5461 + Vorinostat; first compound 1 µM)
NCI-H1355 | 0.446 | 0.398 | 0.402 | 0.331 | 0.244 | 1.03 | 0.932 | 0.82 | 0.916 | 0.185 | 1.03 | 1.01 | 1.01 | 0.943 | 0.95 | 0.711 | 0.736 | 0.625 | 0.432 | 0.43
NCI-H1395 | 1.07 | 1.04 | 1.01 | 0.453 | 0.388 | 1.15 | 1.24 | 0.931 | 0.389 | 0.311 | 0.959 | 0.916 | 0.884 | 0.988 | 0.737 | 0.672 | 0.635 | 0.535 | 0.379 | 0.473
NCI-H1437 | 0.538 | 0.486 | 0.325 | 0.194 | 0.191 | 1.17 | 1.13 | 0.443 | 0.152 | 0.244 | 1.25 | 1.26 |  | 1.23 | 1.18 | 0.942 | 0.871 | 0.791 | 0.858 | 0.749
NCI-H1650 | 0.568 | 0.558 | 0.479 | 0.131 | 0.254 | 1.42 | 1.06 | 0.682 | 0.149 | 0.171 | 1.35 | 1.45 | 0.958 | 0.928 | 0.385 | 0.619 | 0.466 | 0.33 | 0.61 | 0.261
NCI-H1651 | 0.803 | 0.729 | 0.729 | 0.877 | 0.238 | 1.05 | 1.16 | 0.337 | 0.052 | 0.0654 | 0.734 | 0.55 |  | 0.598 | 0.168 | 0.55 | 0.552 | 0.546 | 0.566 | 0.194
NCI-H1666 | 0.738 | 0.849 | 0.719 | 0.872 | 0.523 | 1.09 | 0.932 | 0.83 | 0.153 | 0.174 | 1.02 | 0.969 | 0.962 | 0.916 | 0.692 | 0.986 | 1.05 | 1.07 | 0.981 | 0.975
NCI-H1734 | 0.713 | 0.703 | 0.483 | 0.366 | 0.209 | 0.905 | 0.86 | 0.446 | 0.412 | 0.133 | 0.88 | 0.878 | 0.941 | 0.634 | 0.758 | 0.83 | 0.908 | 0.744 | 0.278 | 0.35
NCI-H1755 | 0.858 | 0.796 | 0.694 | 0.665 | 0.228 | 1.1 | 1.05 | 0.591 | 0.481 | 0.16 | 0.934 | 0.905 | 0.889 | 0.913 | 0.898 | 0.806 | 0.793 | 0.735 | 0.722 | 0.667
NCI-H1793 | 0.346 | 0.442 | 0.283 | 0.211 | 0.169 | 0.356 | 0.472 | 0.391 | 0.282 | 0.246 | 0.8 | 0.734 | 0.665 |  | 0.802 | 0.894 | 0.927 | 0.786 | 0.367 | 0.645
NCI-H1915 | 0.321 | 0.309 | 0.324 | 0.249 | 0.12 | 0.708 | 0.857 | 0.412 | 0.661 | 0.219 | 1.14 | 1.07 | 1.09 | 1.08 | 1.05 | 0.554 | 0.567 | 0.503 | 0.427 | 0.482
NCI-H1944 | 0.399 | 0.391 | 0.388 | 0.39 | 0.167 | 0.962 | 1.13 |  | 1.01 | 0.125 | 0.849 | 0.913 | 0.897 | 0.47 | 0.822 | 0.538 | 0.569 | 0.383 | 0.25 | 0.271
NCI-H1975 | 0.4 | 0.379 | 0.271 | 0.159 | 0.138 | 1.28 | 1.19 | 0.528 | 0.44 | 0.184 | 0.971 | 0.896 | 1.03 | 0.981 | 0.521 | 0.686 | 0.719 | 0.684 | 0.696 | 0.459
NCI-H1993 | 0.53 | 0.353 | 0.557 | 0.507 | 0.401 | 0.975 | 0.792 | 0.722 | 0.552 | 0.576 | 0.738 | 0.779 | 0.813 | 0.746 | 0.788 | 1.11 | 0.988 | 0.889 | 0.403 | 0.638
NCI-H2009 | 0.312 | 0.298 | 0.249 | 0.129 | 0.154 | 1.22 | 1.02 | 0.915 | 0.642 | 0.115 | 1.24 | 1.17 | 1.07 | 1.18 | 1.04 | 0.755 | 0.716 | 0.652 | 0.661 | 0.332
NCI-H2023 | 0.473 | 0.504 | 0.366 | 0.0709 | 0.115 | 1.16 | 1.05 | 0.561 | 0.257 | 0.121 | 0.954 | 0.71 | 0.733 | 0.552 | 0.108 | 0.564 | 0.355 |  | 0.15 | 0.0756
NCI-H2085 | 0.559 | 0.477 | 0.471 | 0.25 | 0.27 | 1.17 | 1.16 | 0.859 | 0.62 | 0.251 | 0.961 | 1.07 | 0.92 | 0.864 | 0.826 | 0.854 | 0.82 | 0.708 | 0.865 | 0.719
